This is an account of results in patent US20090111105A1 (priority 2007, published 2009).

The subject of one assay is prostate. To be noted: Arteaga-Silva et al. 2005; cited from earlier work.
The next assay concerns male sexual behaviour. To be noted: in comparison with testosterone; Arteaga-Silva et al. 2005; cited from earlier work.
A further assay concerns the target T1, androgen receptor (AR) (Homo sapiens, UniProt P10275).
T1 sequence (P10275 1-920): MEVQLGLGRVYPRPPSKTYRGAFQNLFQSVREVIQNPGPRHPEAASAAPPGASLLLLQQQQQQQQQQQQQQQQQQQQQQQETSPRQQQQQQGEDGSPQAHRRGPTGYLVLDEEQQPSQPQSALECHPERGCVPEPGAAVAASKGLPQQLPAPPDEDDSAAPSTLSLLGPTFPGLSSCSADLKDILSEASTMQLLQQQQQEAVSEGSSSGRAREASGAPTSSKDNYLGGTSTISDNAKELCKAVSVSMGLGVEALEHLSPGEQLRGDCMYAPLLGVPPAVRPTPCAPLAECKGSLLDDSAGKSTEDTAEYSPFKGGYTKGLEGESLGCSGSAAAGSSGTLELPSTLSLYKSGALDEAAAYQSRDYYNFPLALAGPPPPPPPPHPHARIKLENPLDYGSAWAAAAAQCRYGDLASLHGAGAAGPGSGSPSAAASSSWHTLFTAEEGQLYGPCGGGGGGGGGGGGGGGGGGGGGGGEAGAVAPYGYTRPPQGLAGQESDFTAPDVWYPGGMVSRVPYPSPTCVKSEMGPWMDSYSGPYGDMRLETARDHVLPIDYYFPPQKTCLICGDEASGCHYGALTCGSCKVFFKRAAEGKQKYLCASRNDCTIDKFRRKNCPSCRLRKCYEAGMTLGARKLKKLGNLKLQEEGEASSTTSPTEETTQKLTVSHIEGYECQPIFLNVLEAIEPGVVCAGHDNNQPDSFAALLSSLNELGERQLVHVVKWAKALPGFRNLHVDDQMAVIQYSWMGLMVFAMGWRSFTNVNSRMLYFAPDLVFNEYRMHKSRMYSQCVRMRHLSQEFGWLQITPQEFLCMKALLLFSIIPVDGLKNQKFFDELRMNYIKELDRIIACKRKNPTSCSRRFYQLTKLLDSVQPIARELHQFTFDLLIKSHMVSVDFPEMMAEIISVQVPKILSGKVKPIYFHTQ
To be noted: SH-SY5Y cells, 1f-pGI3 + pSG5AR, FIG. 8 and FIG. 10.

`C[C@]12CCC(=O)C[C@@H]1CC[C@@H]1[C@@H]2CC[C@]2(C)[C@@H](O)CC[C@@H]12` [DHT, dihydrotestosterone]: in the assay on prostate, the “androgenic action on the prostate” value was “very strong androgen”. For the same compound, the “action on male sexual behaviour” value in the assay with male sexual behaviour was “considerably less action”.

For `CCC(=O)O[C@H]1CC[C@H]2[C@@H]3CCC4=CC(=O)CC[C@]4(C)[C@H]3CC[C@]12C` [testosterone propionate], the “induction of reporter gene expression on the 1f-promoter” value on androgen receptor (AR) was “very potent stimulation”.
